In one test the target is T1, purified HLA DRB1*1201 (Homo sapiens, UniProt P01903+P01911, A100R/A169T/D57E/D86V/F55L/H45Y/K41T/L162R/M171V/P40S/Q125H/Q178H/Q39Y/Q99D/R42G/S66L/T262R/V114A/V67L/W38E/Y59H/Y61H/Y89S).
T1 construct: purified from EBV transformed homozygous cell lines or single MHC allele transfected 721.221, C1R, or fibroblast lines; made in house
The experiment in a line: HLA-DR radioligand binding inhibition assay, DRB1*1201. As to the method:
(§1) Instead, wells of an opaque white 96-well Optiplate (Packard) are coated with 3 μg (100 μl@ 30 μg/ml) of HLA-specific antibody (Ab) that “capture” complexes of radiolabeled MHC and unlabeled peptide transferred from the molecular binding assay plate in 100 μl of 0.05% NP40/PBS. After a 3-hour incubation period, the supernatant is decanted and scintillation fluid (Microscint 20) added. Captured complexes are then measured on a microplate scintillation and luminescence counter (TopCount NXTTM; Packard).
(§2) HLA-DR purification. Fifteen distinct HLA-DR molecules were used in quantitative assays to measure the binding of peptides to solubilized HLA-DR molecules. […] Briefly, columns of inactivated Sepharose CL4B and Protein A Sepharose were used as pre-columns. HLA-DR molecules were captured by passage of lysates over LB3.1 monoclonal antibody (anti-HLA-DRA) columns. Antibody columns were washed with 10 mM Tris-HCL, pH8.0 with 1% (v/v) NP-40, followed by PBS containing 0.4% (w/v) n-octylglucoside. […] The pH was reduced to 8.0 and the eluates were concentrated by centrifugation in Centriprep 30 concentrators at 2000 rpm (Amicon, Beverly, Mass.).
(§3) Briefly, 1-10 nM of radiolabeled peptide was co-incubated for 2 days at either room temperature or 37° C. with 1 μM to 1 nM purified HLA-DR molecules in the presence of a cocktail of protease inhibitors. Assays were performed at various pH conditions, ranging from pH 4 to pH 7. […] After incubation, the percentage of HLA-DR-bound radioactivity is determined by capturing HLA-DR/peptide complexes on Optiplates (Packard Instruments, Meriden, Conn.) coated with the LB3.1 antibody and determining bound counts per minute using the TopCount microscintillation counter (Packard Instruments). […] Competitor peptides are tested in 2-4 complete, independent experiments, at concentrations ranging from […].

For a further test, the target named is T2, purified HLA DRB1*0701 (Homo sapiens, UniProt P01903+P01911, A100R/A102G/A103Q/D57E/D86V/E43K/F76Y/K127E/L162R/M171V/P40G/Q125H/Q99D/R33Q/R42Y/R54Q/S133A/S66F/T210M/V115G/Y107V/Y59L/Y89S).
T2 construct: purified from EBV transformed homozygous cell lines or single MHC allele transfected 721.221, C1R, or fibroblast lines; made in house
The experiment in a line: HLA-DR radioligand binding inhibition assay, DRB1*0701. The settings on record: IC50 nM purified HLA DRB1 *0701, purified HLA DRB1*0701. A digest of the protocol:
(§4)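 Bound radioactivity is read after 3-hour capture of complexes in 0.05% NP40/PBS on antibody-coated plates. Binding reactions pair 1-10 nM labeled peptide with 1 μM to 1 nM HLA-DR for two days.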

The target of a further test is T3, purified HLA DRB1*0405 (Homo sapiens, UniProt P01903+P01911, A100R/A169T/D86S/F76Y/I96L/K127E/L162R/M171V/N62H/P40V/Q125Y/R42H/S133A/S149N/S66Y/V115G/V209L/W38E).
T3 construct: purified from EBV transformed homozygous cell lines or single MHC allele transfected 721.221, C1R, or fibroblast lines; made in house
Description: HLA-DR radioligand binding inhibition assay, DRB1*0405. The settings on record: IC50 nM purified HLA DRB1 *0405, purified HLA DRB1*0405. Summed up: as §4

The target of a further test is T4, purified HLA DRB1*0802 (Homo sapiens, UniProt P01903+P01911, A100R/A103L/A169T/F76Y/H45Y/I96F/K41T/L162R/M171V/P40S/Q125H/Q178H/Q39Y/Q99D/R218S/R42G/S66Y/V115G/W38E).
T4 construct: purified from EBV transformed homozygous cell lines or single MHC allele transfected 721.221, C1R, or fibroblast lines; made in house
The experiment in a line: HLA-DR radioligand binding inhibition assay, DRB1*0802. The settings on record: IC50 nM purified HLA DRB1 *0802, purified HLA DRB1*0802. As to the method: as §1, §2, §3

The target of a further test is T5, purified HLA DRB3*0101 (Homo sapiens, UniProt P01903+P79483).
T5 construct: purified from EBV transformed homozygous cell lines or single MHC allele transfected 721.221, C1R, or fibroblast lines; made in house
The experiment in a line: HLA-DR radioligand binding inhibition assay, DRB3*0101. Particulars: IC50 nM purified HLA DRB3 *0101, purified HLA DRB3*0101. As to the method: as §1, §2, §3

The next test deals with T6, purified HLA DRB5*0101 (Homo sapiens, UniProt P01903+Q30154).
T6 construct: purified from EBV transformed homozygous cell lines or single MHC allele transfected 721.221, C1R, or fibroblast lines; made in house
Description: HLA-DR radioligand binding inhibition assay, DRB5*0101. The settings on record: IC50 nM purified HLA DRB5 *0101, purified HLA DRB5*0101. A digest of the protocol:
as §4

Another test concerns the target T7, purified HLA DRB1*0901 (Homo sapiens, UniProt P01903+P01911, A100R/A103E/D57H/D86V/F55Y/F60I/F76Y/I96F/K127E/L162R/M171V/P40D/Q125H/Q99R/R33Q/R42F/S133A/S66N/T210M/V115G/W38K/Y107V/Y59G/Y89S).
T7 construct: purified from EBV transformed homozygous cell lines or single MHC allele transfected 721.221, C1R, or fibroblast lines; made in house
Description: HLA-DR radioligand binding inhibition assay, DRB1*0901. The settings on record: IC50 nM purified HLA DRB1 *0901, purified HLA DRB1*0901. As to the method: as §1
(§5) HLA-DR purification. Fifteen distinct HLA-DR molecules were used in quantitative assays to measure the binding of peptides to solubilized HLA-DR molecules. […] Briefly, columns of inactivated Sepharose CL4B and Protein A Sepharose were used as pre-columns. HLA-DR molecules were captured by passage of lysates over LB3.1 monoclonal antibody (anti-HLA-DRA) columns. Antibody columns were washed with 10 mM Tris-HCL, pH8.0 with 1% (v/v) NP-40, followed by PBS containing 0.4% (w/v) n-octylglucoside.
(§6) Briefly, 1-10 nM of radiolabeled peptide was co-incubated for 2 days at either room temperature or 37° C. with 1 μM to 1 nM purified HLA-DR molecules in the presence of a cocktail of protease inhibitors. Assays were performed at various pH conditions, ranging from pH 4 to pH 7. […] After incubation, the percentage of HLA-DR-bound radioactivity is determined by capturing HLA-DR/peptide complexes on Optiplates (Packard Instruments, Meriden, Conn.) coated with the LB3.1 antibody and determining bound counts per minute using the TopCount microscintillation counter (Packard Instruments).

The next test deals with T8, purified HLA DRB1*0401 (Homo sapiens, UniProt P01903+P01911, A100K/A169T/F76Y/I96L/K127E/L162R/M171V/N62H/P40V/Q125Y/R42H/S133A/S149N/S66Y/V115G/V209L/W38E).
T8 construct: purified from EBV transformed homozygous cell lines or single MHC allele transfected 721.221, C1R, or fibroblast lines; made in house
Description: HLA-DR radioligand binding inhibition assay, DRB1*0401. The settings on record: IC50 nM purified HLA DRB1 *0401, purified HLA DRB1*0401. Summed up:
as §4

A further test has as its target T9, purified HLA DRB1*0101 (Homo sapiens, UniProt P01903+P01911, A100R/D57E/F55L/F60I/F76Y/I96L/L162R/M171V/P40L/Q125E/R42F/V115G/Y59C).
T9 construct: purified from EBV transformed homozygous cell lines or single MHC allele transfected 721.221, C1R, or fibroblast lines; made in house
The experiment in a line: HLA-DR radioligand binding inhibition assay, DRB1*0101. The settings on record: IC50 nM purified HLA DRB1 *0101, purified HLA DRB1*0101. Summed up: as §4

The target in a further test is T10, purified HLA DRB1*0404 (Homo sapiens, UniProt P01903+P01911, A100R/A169T/F76Y/I96L/K127E/L162R/M171V/N62H/P40V/Q125Y/R42H/S133A/S149N/S66Y/V209L/W38E).
T10 construct: purified from EBV transformed homozygous cell lines or single MHC allele transfected 721.221, C1R, or fibroblast lines; made in house
Description: HLA-DR radioligand binding inhibition assay, DRB1*0404. The settings on record: IC50 nM purified HLA DRB1 *0404, purified HLA DRB1*0404. A digest of the protocol:
as §4

A further test addresses T11, purified HLA DRB1*1101 (Homo sapiens, UniProt P01903+P01911, A100R/A169T/A87E/I96F/K41T/L162R/M171V/P40S/Q125H/Q178H/Q39Y/Q99D/R42S/S66Y/T262R/V115G/W38E).
T11 construct: purified from EBV transformed homozygous cell lines or single MHC allele transfected 721.221, C1R, or fibroblast lines; made in house
Description: HLA-DR radioligand binding inhibition assay, DRB1*1101. The settings on record: IC50 nM purified HLA DRB1 *1101, purified HLA DRB1*1101. A digest of the protocol:
as §4

In a further test the target is T12, purified HLA DRB1*0301 (Homo sapiens, UniProt P01903+P01911, A100K/A102G/A103R/A169T/F55Y/I96L/K41T/L162R/M171V/P40S/Q125H/Q178H/Q39Y/R42S/S66N/T106N/T262R/W38E/Y61H).
T12 construct: purified from EBV transformed homozygous cell lines or single MHC allele transfected 721.221, C1R, or fibroblast lines; made in house
Description: HLA-DR radioligand binding inhibition assay, DRB1*0301. Particulars: IC50 nM purified HLA DRB1 *0301, purified HLA DRB1*0301. As to the method: as §1, §5, §6

SMILES strings stand for the structures. A value given as a limit tells only on which side of the number the result lay.

T11 sequence (P01903 26-254, other chains not shown): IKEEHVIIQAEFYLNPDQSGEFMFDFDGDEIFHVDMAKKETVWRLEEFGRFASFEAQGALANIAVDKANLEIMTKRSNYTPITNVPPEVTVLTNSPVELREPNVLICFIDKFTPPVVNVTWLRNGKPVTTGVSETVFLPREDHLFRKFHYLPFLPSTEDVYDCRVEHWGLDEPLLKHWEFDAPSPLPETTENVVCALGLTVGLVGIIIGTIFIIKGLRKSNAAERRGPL

Broadly, the IC50 is the concentration at which inhibition is half-maximal. The low end stands for greater potency in that assay, the high end for weaker potency in that assay. Consider `CC[C@H](C)[C@H](NC(=O)[C@@H](NC(=O)[C@H](Cc1c[nH]cn1)NC(=O)[C@@H](N)CC(C)C)C(C)C)C(=O)N[C@@H](CCCCN)C(=O)N[C@@H](CO)C(=O)N[C@@H](CC(=O)O)C(=O)N[C@@H](CC(C)C)C(=O)N[C@H](C(=O)N[C@@H](CC(N)=O)C(=O)N[C@@H](CCC(=O)O)C(=O)N[C@@H](CCC(=O)O)C(=O)N[C@@H](C)C(=O)N[C@H](C(=O)NCC(=O)O)[C@@H](C)O)C(C)C` [Peptide 9019.0005], for which the IC50 on purified HLA DRB1*1201 is more than 20000 nM; at purified HLA DRB1*0701 it was 3890 nM; at purified HLA DRB1*0405 it was 37 nM; on purified HLA DRB1*0802, more than 20000 nM; on purified HLA DRB3*0101 it was more than 20000 nM; on purified HLA DRB5*0101 it was more than 20000 nM. For the same molecule, the IC50 on purified HLA DRB1*0901 was more than 20000 nM.
In the case of `CC[C@H](C)[C@H](NC(=O)[C@@H](NC(=O)[C@@H]1CCCN1C(=O)[C@H](C)N)[C@@H](C)O)C(=O)N[C@@H](CCCNC(=N)N)C(=O)NCC(=O)N[C@@H](CC(=O)O)C(=O)N1CCC[C@H]1C(=O)N[C@@H](CCC(=O)O)C(=O)N[C@@H](CS)C(=O)N[C@@H](Cc1c[nH]cn1)C(=O)N[C@@H](CC(C)C)C(=O)N[C@@H](Cc1ccccc1)C(=O)N[C@@H](Cc1ccc(O)cc1)C(=O)N[C@@H](CC(N)=O)C(=O)O` [Peptide 9019.0022], the IC50 at purified HLA DRB1*1201 was 16900 nM; on purified HLA DRB1*0401, 1640 nM; on purified HLA DRB1*0101, 4030 nM; on purified HLA DRB1*0701, 16800 nM; on purified HLA DRB1*0405, more than 20000 nM; at purified HLA DRB1*0802 it was more than 20000 nM. Further, the IC50 on purified HLA DRB1*0404 is 2910 nM; on purified HLA DRB5*0101, more than 20000 nM; on purified HLA DRB1*1101 it was more than 20000 nM; at purified HLA DRB1*0301 it was 31 nM; at purified HLA DRB1*0901 it was more than 20000 nM.

(Values after patent publication US20140377340A1, “HLA-DR BINDING PEPTIDES AND THEIR USES” (priority 2007, published 2014).)
